Experimental data taken from patent publication US9995734B2, “Human T cell line assay for evaluating the immunologic identity of glatiramer acetate preparations” (Mylan Inc., priority 2013, dated 2018).

System: Donor 3 COP T-Cell Lines
Experiment: ATP proliferation assay (CellTiter Glo), Donor 3 COP T-cell lines, incl. reactivity to non-canonical GA peptides
Type: cell-based, human
Conditions: for ATP proliferation assay: Day 14; for Reactivity (proliferation), Mean: Day 54 of culture

glatiramer acetate [COP]
ATP proliferation assay (165-D2C, 10 μg/mL, control 12767): 54895 RLU | ATP proliferation assay (165-D3C, 10 μg/mL, control 18380): 119241 RLU | ATP proliferation assay (165-D11C, 10 μg/mL, control 13302): 82759 RLU | ATP proliferation assay (165-E3C, 10 μg/mL, control 12219): 69893 RLU | ATP proliferation assay (165-E9C, 10 μg/mL, control 22512): 98168 RLU | ATP proliferation assay (165-F3C, 10 μg/mL, control 13157): 93437 RLU | ATP proliferation assay (165-F4C, 10 μg/mL, control 13598): 96289 RLU | ATP proliferation assay (165-F6C, 10 μg/mL, control 23457): 135516 RLU | ATP proliferation assay (165-F9C, 10 μg/mL, control 19736): 145768 RLU | Reactivity (proliferation), Mean (T-cell line 165-B6C, 1 μg/mL antigen, No Antigen 2358): 3878 RLU | Reactivity (proliferation), Mean (T-cell line 165-B6C, 3 μg/mL antigen, No Antigen 2358): 21455 RLU | Mean, ATP proliferation assay (T-cell line 165-B6C, 3 μg/mL, Day 46, after 3 days): 29815 RLU | Reactivity (proliferation), Mean (T-cell line 165-B6C, 10 μg/mL antigen, No Antigen 2358): 32197 RLU | Mean, ATP proliferation assay (T-cell line 165-B6C, 10 μg/mL, Day 46, after 3 days): 34502 RLU | Reactivity (proliferation), Mean (T-cell line 165-B6C, 100 μg/mL antigen, No Antigen 2358): 7969 RLU | Mean, ATP proliferation assay (T-cell line 165-B6C, Day 32, 10 μg/mL): 952 RLU | Reactivity (proliferation), Mean (T-cell line 165-B10C, 1 μg/mL antigen, No Antigen 2234): 2117 RLU | Reactivity (proliferation), Mean (T-cell line 165-B10C, 3 μg/mL antigen, No Antigen 2234): 2519 RLU | Mean, ATP proliferation assay (T-cell line 165-B10C, 3 μg/mL, Day 46, after 3 days): 8450 RLU | Reactivity (proliferation), Mean (T-cell line 165-B10C, 10 μg/mL antigen, No Antigen 2234): 6701 RLU | Mean, ATP proliferation assay (T-cell line 165-B10C, 10 μg/mL, Day 46, after 3 days): 19792 RLU | Reactivity (proliferation), Mean (T-cell line 165-B10C, 100 μg/mL antigen, No Antigen 2234): 6215 RLU | Proliferation (luminescent ATP assay), Mean (T-cell line 165-C4C, 1 μg/mL antigen, Day 66 of culture, 0 μg/mL 1881): 2357 | Mean, ATP proliferation assay (T-cell line 165-C4C, 1 μg/mL, Day 39): 11653 | Proliferation (luminescent ATP assay), Mean (T-cell line 165-C4C, 3 μg/mL antigen, Day 66 of culture, 0 μg/mL 1881): 7913 | Mean, ATP proliferation assay (T-cell line 165-C4C, 3 μg/mL, Day 39): 28474 | Proliferation (luminescent ATP assay), Mean (T-cell line 165-C4C, 10 μg/mL antigen, Day 66 of culture, 0 μg/mL 1881): 74558 | Mean, ATP proliferation assay (T-cell line 165-C4C, 10 μg/mL, Day 39): 28262 | Mean, ATP proliferation assay (T-cell line 165-C7C, 1 μg/mL, Day 39): 3670 | Mean, ATP proliferation assay (T-cell line 165-C7C, 3 μg/mL, Day 39): 16527 | Mean, ATP proliferation assay (T-cell line 165-C7C, 10 μg/mL, Day 39): 40194 | Mean, ATP proliferation assay (T-cell line 165-D2C, 1 μg/mL, Day 39): 3955 | Mean, ATP proliferation assay (T-cell line 165-D2C, 3 μg/mL, Day 39): 7378 | Mean, ATP proliferation assay (T-cell line 165-D2C, 10 μg/mL, Day 39): 14239 | Reactivity (proliferation), Mean (T-cell line 165-D3C, 1 μg/mL antigen, No Antigen 8319): 22689 RLU | Mean, ATP proliferation assay (T-cell line 165-D3C, 1 μg/mL, Day 46, after 3 days): 1248 RLU | Reactivity (proliferation), Mean (T-cell line 165-D3C, 3 μg/mL antigen, No Antigen 8319): 50369 RLU | Mean, ATP proliferation assay (T-cell line 165-D3C, 3 μg/mL, Day 46, after 3 days): 79792 RLU | Reactivity (proliferation), Mean (T-cell line 165-D3C, 10 μg/mL antigen, No Antigen 8319): 52151 RLU | Mean, ATP proliferation assay (T-cell line 165-D3C, 10 μg/mL, Day 46, after 3 days): 86270 RLU | Reactivity (proliferation), Mean (T-cell line 165-D3C, 100 μg/mL antigen, No Antigen 8319): 10140 RLU | Mean, ATP proliferation assay (T-cell line 165-D3C, Day 32, 10 μg/mL): 3362 RLU | Reactivity (proliferation), Mean (T-cell line 165-D11C, 1 μg/mL antigen, No Antigen 4571): 3410 RLU | Mean, ATP proliferation assay (T-cell line 165-D11C, 1 μg/mL, Day 46, after 3 days): 486 RLU | Reactivity (proliferation), Mean (T-cell line 165-D11C, 3 μg/mL antigen, No Antigen 4571): 6618 RLU | Mean, ATP proliferation assay (T-cell line 165-D11C, 3 μg/mL, Day 46, after 3 days): 19410 RLU | Reactivity (proliferation), Mean (T-cell line 165-D11C, 10 μg/mL antigen, No Antigen 4571): 15652 RLU | Mean, ATP proliferation assay (T-cell line 165-D11C, 10 μg/mL, Day 46, after 3 days): 42017 RLU | Reactivity (proliferation), Mean (T-cell line 165-D11C, 100 μg/mL antigen, No Antigen 4571): 12958 RLU | Mean, ATP proliferation assay (T-cell line 165-D11C, Day 32, 10 μg/mL): 525 RLU | Reactivity (proliferation), Mean (T-cell line 165-E3C, 1 μg/mL antigen, No Antigen 2797): 2592 RLU | Mean, ATP proliferation assay (T-cell line 165-E3C, 1 μg/mL, Day 46, after 3 days): 364 RLU | Reactivity (proliferation), Mean (T-cell line 165-E3C, 3 μg/mL antigen, No Antigen 2797): 14394 RLU | Mean, ATP proliferation assay (T-cell line 165-E3C, 3 μg/mL, Day 46, after 3 days): 23785 RLU | Reactivity (proliferation), Mean (T-cell line 165-E3C, 10 μg/mL antigen, No Antigen 2797): 39495 RLU | Mean, ATP proliferation assay (T-cell line 165-E3C, 10 μg/mL, Day 46, after 3 days): 51822 RLU | Reactivity (proliferation), Mean (T-cell line 165-E3C, 100 μg/mL antigen, No Antigen 2797): 20538 RLU | Mean, ATP proliferation assay (T-cell line 165-E3C, Day 32, 10 μg/mL): 3778 RLU | Reactivity (proliferation), Mean (T-cell line 165-F3C, 1 μg/mL antigen, No Antigen 3150): 7777 RLU | Proliferation (luminescent ATP assay), Mean (T-cell line 165-F3C, 1 μg/mL antigen, Day 77 of culture, 0 μg/mL 1563): 5027 | Reactivity (proliferation), Mean (T-cell line 165-F3C, 3 μg/mL antigen, No Antigen 3150): 36331 RLU | Proliferation (luminescent ATP assay), Mean (T-cell line 165-F3C, 3 μg/mL antigen, Day 77 of culture, 0 μg/mL 1563): 32906 | Mean, ATP proliferation assay (T-cell line 165-F3C, 3 μg/mL, Day 46, after 3 days): 75407 RLU | Reactivity (proliferation), Mean (T-cell line 165-F3C, 10 μg/mL antigen, No Antigen 3150): 44047 RLU | Proliferation (luminescent ATP assay), Mean (T-cell line 165-F3C, 10 μg/mL antigen, Day 77 of culture, 0 μg/mL 1563): 62888 | Mean, ATP proliferation assay (T-cell line 165-F3C, 10 μg/mL, Day 46, after 3 days): 85442 RLU | Reactivity (proliferation), Mean (T-cell line 165-F3C, 100 μg/mL antigen, No Antigen 3150): 9932 RLU | Mean, ATP proliferation assay (T-cell line 165-F3C, Day 32, 10 μg/mL): 1141 RLU | Reactivity (proliferation), Mean (T-cell line 165-F6C, 1 μg/mL antigen, No Antigen 2189): 13418 RLU | Reactivity (proliferation), Mean (T-cell line 165-F6C, 3 μg/mL antigen, No Antigen 2189): 38973 RLU | Mean, ATP proliferation assay (T-cell line 165-F6C, 3 μg/mL, Day 46, after 3 days): 31382 RLU | Reactivity (proliferation), Mean (T-cell line 165-F6C, 10 μg/mL antigen, No Antigen 2189): 39560 RLU | Mean, ATP proliferation assay (T-cell line 165-F6C, 10 μg/mL, Day 46, after 3 days): 34071 RLU | Reactivity (proliferation), Mean (T-cell line 165-F6C, 100 μg/mL antigen, No Antigen 2189): 4332 RLU | Mean, ATP proliferation assay (T-cell line 165-F6C, Day 32, 10 μg/mL): 1484 RLU | response in proliferation assay (all seven Donor 3 COP T-cell lines tested, Day 54): responded well | reactivity in confirmatory ATP proliferation assay (six Donor 3 COP lines, Day 32, 10 μg/mL (Table 23)): showed reactivity
